Each structure is given as a SMILES string. Where a SMILES comes first, the peptide text is derived from it. [ ]: non-standard residue; d: D form. The star is where a group is joined. X1 = NC(=O)CCOCCOCCOCCOCCOCCOCCNC(=O)COCC(=O)NCCCOCCOCCOCCCN*; dPhe(4-Cl) = N[C@H](Cc1ccc(Cl)cc1)C(=O)O; d2Thi = N[C@H](Cc1cccs1)C(=O)O; Nle = CCCC[C@H](N)C(=O)O; NHIsopentyl = CC(C)CCN*

The first series is described as follows: Pharmacokinetics in rats after intravenous bolus injection (systemic clearance). The class given is in vivo. Particulars: rat, plasma, 0.2 mg FB/kg, adult male Sprague-Dawley rats, i.v. bolus, dose 0.20 mg FB/kg, read-out: CL (ml/kg/min) Average. In a few lines:
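Systemic clearance from noncompartmental analysis as dose per kg over trapezoidal AUC extrapolated to infinity, mean and SD across animals. Plasma (K2EDTA) levels by LC/MS/MS after single IV jugular-vein bolus, 0.1-1.0 mg/kg, in 3-4 cannulated male Sprague-Dawley rats.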
On to `CCCC[C@H](NC(=O)[C@H](CCC(=O)O)NC(=O)[C@H](CC(=O)O)NC(=O)[C@H](CO)NC(=O)[C@H](Cc1ccccc1)NC(=O)[C@H](CO)NC(=O)CNC(=O)[C@H](CC(=O)O)NC(=O)CNC(=O)[C@@H](N)Cc1c[nH]cn1)C(=O)N[C@H](Cc1ccccc1)C(=O)N[C@H](C(=O)N[C@H](C(=O)N[C@@H](CC(C)C)C(=O)N[C@@H](CC(=O)O)C(=O)N[C@@H](Cc1ccccc1)C(=O)N[C@@H](CC(C)C)C(=O)N[C@@H](C)C(=O)N[C@@H](C)C(=O)N[C@@H](CCCNC(=N)N)C(=O)N[C@@H](CC(=O)O)C(=O)N[C@@H](Cc1ccccc1)C(=O)N[C@H](C(=O)N[C@@H](CC(N)=O)C(=O)N[C@@H](Cc1c[nH]c2ccccc12)C(=O)N[C@@H](CC(C)C)C(=O)N[C@H](C(=O)N[C@@H](CCC(N)=O)C(=O)N[C@H](C(=O)N[C@@H](CCCCN)C(=O)N[C@H](C(=O)N[C@H](C(=O)N[C@@H](CC(=O)O)C(=O)NCCCOCCOCCOCCCNC(=O)COCC(=O)NCCOCCOCCOCCOCCOCCOCCC(N)=O)[C@@H](C)O)[C@@H](C)CC)[C@@H](C)O)[C@@H](C)CC)[C@@H](C)CC)[C@@H](C)CC)[C@@H](C)O` [Compound 61, [Gly2,Nle10,D-Phe11,Phe16] hGLP-2(1-33)-NH—CH2—((CH2)2O)3—(CH2)3—NH—C(O)—CH2—O—CH2—C(O)—NH—((CH2)2O)6—(CH2)2—C(O)—NH2] (H-HGDGSFSDE[Nle][dF]TILDFLAARDFINWLIQTKITD-X1), for which the clearance was found to be 0.16 mL/kg/min.
As for `CCCC[C@H](NC(=O)[C@H](CCC(=O)O)NC(=O)[C@H](CC(=O)O)NC(=O)[C@H](CO)NC(=O)[C@H](Cc1ccccc1)NC(=O)[C@H](CO)NC(=O)CNC(=O)[C@H](CC(=O)O)NC(=O)CNC(=O)[C@@H](N)Cc1cnc[nH]1)C(=O)N[C@H](Cc1cccs1)C(=O)N[C@H](C(=O)N[C@H](C(=O)N[C@@H](CC(C)C)C(=O)N[C@@H](CC(=O)O)C(=O)N[C@@H](Cc1ccccc1)C(=O)N[C@@H](CC(C)C)C(=O)N[C@@H](C)C(=O)N[C@@H](C)C(=O)N[C@@H](CCCNC(=N)N)C(=O)N[C@@H](CC(=O)O)C(=O)N[C@@H](Cc1ccccc1)C(=O)N[C@H](C(=O)N[C@@H](CC(N)=O)C(=O)N[C@@H](Cc1c[nH]c2ccccc12)C(=O)N[C@@H](CC(C)C)C(=O)N[C@H](C(=O)N[C@@H](CCC(N)=O)C(=O)N[C@H](C(=O)N[C@@H](CCCCN)C(N)=O)[C@@H](C)O)[C@@H](C)CC)[C@@H](C)CC)[C@@H](C)CC)[C@@H](C)O` [Compound 46, [Gly2,Nle10,D-Thi11,Phe16] hGLP-2 (1-30)-NH2] (H-HGDGSFSDE[Nle][d2Thi]TILDFLAARDFINWLIQTK-NH2), the clearance amounted to 0.26 mL/kg/min.
In the case of `CCCC[C@H](NC(=O)[C@H](CCC(=O)O)NC(=O)[C@H](CC(=O)O)NC(=O)[C@H](CO)NC(=O)[C@H](Cc1ccccc1)NC(=O)[C@H](CO)NC(=O)CNC(=O)[C@H](CC(=O)O)NC(=O)CNC(=O)[C@@H](N)Cc1c[nH]cn1)C(=O)N[C@@H](CC(N)=O)C(=O)N[C@H](C(=O)N[C@H](C(=O)N[C@@H](CC(C)C)C(=O)N[C@@H](CC(=O)O)C(=O)N[C@@H](CC(C)C)C(=O)N[C@@H](CC(C)C)C(=O)N[C@@H](C)C(=O)N[C@@H](C)C(=O)N[C@@H](CCCNC(=N)N)C(=O)N[C@@H](CC(=O)O)C(=O)N[C@@H](Cc1ccccc1)C(=O)N[C@H](C(=O)N[C@@H](CC(N)=O)C(=O)N[C@@H](Cc1c[nH]c2ccccc12)C(=O)N[C@@H](CC(C)C)C(=O)N[C@H](C(=O)N[C@@H](CCC(N)=O)C(=O)N[C@H](C(=O)N[C@@H](CCCCN)C(N)=O)[C@@H](C)O)[C@@H](C)CC)[C@@H](C)CC)[C@@H](C)CC)[C@@H](C)O` [Compound 11, [Gly2,Nle10,Leu16] hGLP-2 (1-30)-NH2] (H-HGDGSFSDE[Nle]NTILDLLAARDFINWLIQTK-NH2), the clearance was 0.84 mL/kg/min.
As to `CCCC[C@H](NC(=O)[C@H](CCC(=O)O)NC(=O)[C@H](CC(=O)O)NC(=O)[C@H](CO)NC(=O)[C@H](Cc1ccccc1)NC(=O)[C@H](CO)NC(=O)CNC(=O)[C@H](CC(=O)O)NC(=O)CNC(=O)[C@@H](N)Cc1c[nH]cn1)C(=O)N[C@H](Cc1cccs1)C(=O)N[C@H](C(=O)N[C@H](C(=O)N[C@@H](CC(C)C)C(=O)N[C@@H](CC(=O)O)C(=O)N[C@@H](Cc1ccccc1)C(=O)N[C@@H](CC(C)C)C(=O)N[C@@H](C)C(=O)N[C@@H](C)C(=O)N[C@@H](CCCNC(=N)N)C(=O)N[C@@H](CC(=O)O)C(=O)N[C@@H](Cc1ccccc1)C(=O)N[C@H](C(=O)N[C@@H](CC(N)=O)C(=O)N[C@@H](Cc1c[nH]c2ccccc12)C(=O)N[C@@H](CC(C)C)C(=O)N[C@H](C(=O)N[C@@H](CCC(N)=O)C(=O)N[C@H](C(=O)N[C@@H](CCCCN)C(=O)N[C@H](C(=O)N[C@H](C(=O)N[C@@H](CC(=O)O)C(N)=O)[C@@H](C)O)[C@@H](C)CC)[C@@H](C)O)[C@@H](C)CC)[C@@H](C)CC)[C@@H](C)CC)[C@@H](C)O` [Compound 68, [Gly2,Nle10,D-Thi11,Phe16] hGLP-2(1-33)-NH2] (H-HGDGSFSDE[Nle][d2Thi]TILDFLAARDFINWLIQTKITD-NH2), the clearance came out at 0.15 mL/kg/min.
As to `CCCC[C@H](NC(=O)[C@H](CCC(=O)O)NC(=O)[C@H](CC(=O)O)NC(=O)[C@H](CO)NC(=O)[C@H](Cc1ccccc1)NC(=O)[C@H](CO)NC(=O)CNC(=O)[C@H](CC(=O)O)NC(=O)CNC(=O)[C@@H](N)Cc1cnc[nH]1)C(=O)N[C@H](Cc1ccc(Cl)cc1)C(=O)N[C@H](C(=O)N[C@H](C(=O)N[C@@H](CC(C)C)C(=O)N[C@@H](CC(=O)O)C(=O)N[C@@H](CC(N)=O)C(=O)N[C@@H](CC(C)C)C(=O)N[C@@H](C)C(=O)N[C@@H](C)C(=O)N[C@@H](CCCNC(=N)N)C(=O)N[C@@H](CC(=O)O)C(=O)N[C@@H](Cc1ccccc1)C(=O)N[C@H](C(=O)N[C@@H](CC(N)=O)C(=O)N[C@@H](Cc1c[nH]c2ccccc12)C(=O)N[C@@H](CC(C)C)C(=O)N[C@H](C(=O)N[C@@H](CCC(N)=O)C(=O)N[C@H](C(=O)N[C@@H](CCCCN)C(N)=O)[C@@H](C)O)[C@@H](C)CC)[C@@H](C)CC)[C@@H](C)CC)[C@@H](C)O` [Compound 29, [Gly2,Nle10,D-Cpa11] hGLP-2 (1-30)-NH2] (H-HGDGSFSDE[Nle][dPhe(4-Cl)]TILDNLAARDFINWLIQTK-NH2), the clearance was 0.51 mL/kg/min.

Still in this series, the particulars now being: rat, plasma, adult male Sprague-Dawley rats, i.v. bolus, dose 0.18 mg FB/kg, read-out: CL (ml/kg/min) Average.
`CCCC[C@H](NC(=O)[C@H](CCC(=O)O)NC(=O)[C@H](CC(=O)O)NC(=O)[C@H](CO)NC(=O)[C@H](Cc1ccccc1)NC(=O)[C@H](CO)NC(=O)CNC(=O)[C@H](CC(=O)O)NC(=O)CNC(=O)[C@@H](N)Cc1c[nH]cn1)C(=O)N[C@@H](CC(N)=O)C(=O)N[C@H](C(=O)N[C@H](C(=O)N[C@@H](CC(C)C)C(=O)N[C@@H](CC(=O)O)C(=O)N[C@@H](CC(N)=O)C(=O)N[C@@H](CC(C)C)C(=O)N[C@@H](C)C(=O)N[C@@H](C)C(=O)N[C@@H](CCCNC(=N)N)C(=O)N[C@@H](CC(=O)O)C(=O)N[C@@H](Cc1ccccc1)C(=O)N[C@H](C(=O)N[C@@H](CC(N)=O)C(=O)N[C@@H](Cc1c[nH]c2ccccc12)C(=O)N[C@@H](CC(C)C)C(=O)N[C@H](C(=O)N[C@@H](CCCNC(=N)N)C(=O)N[C@H](C(=O)N[C@@H](CCCCN)C(=O)NCCC(C)C)[C@@H](C)O)[C@@H](C)CC)[C@@H](C)CC)[C@@H](C)CC)[C@@H](C)O` [Compound 10, [Gly2,Nle10,Arg28] hGLP-2 (1-30)-NH-i-Am] (H-HGDGSFSDE[Nle]NTILDNLAARDFINWLIRTK-NHIsopentyl): the clearance was 1.5 mL/kg/min.

The values are drawn from US8580918B2, “Peptidic GLP-2 agonists” (Ferring B.V., priority 2009, dated 2013).
